Experiment [1] has as its target T1, human calcitonin receptor (CTR) (Homo sapiens, UniProt P30988).
T1 construct: expressed in transfected cells; host or cells: COS-7 (COS7-human CTR Clone #2)
T1 sequence (P30988 25-474): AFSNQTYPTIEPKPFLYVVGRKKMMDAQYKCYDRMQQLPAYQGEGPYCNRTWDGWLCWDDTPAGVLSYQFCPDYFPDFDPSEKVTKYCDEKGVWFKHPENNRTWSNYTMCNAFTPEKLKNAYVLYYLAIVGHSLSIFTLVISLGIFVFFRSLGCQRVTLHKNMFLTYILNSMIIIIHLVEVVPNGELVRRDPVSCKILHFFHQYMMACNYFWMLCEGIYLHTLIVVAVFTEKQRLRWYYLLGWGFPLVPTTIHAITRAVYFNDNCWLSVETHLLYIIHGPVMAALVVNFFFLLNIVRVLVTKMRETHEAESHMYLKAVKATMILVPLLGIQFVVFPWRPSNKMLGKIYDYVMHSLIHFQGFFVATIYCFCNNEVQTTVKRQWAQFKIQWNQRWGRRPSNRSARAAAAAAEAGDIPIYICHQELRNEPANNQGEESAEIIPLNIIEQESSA
Nature of the experiment: Calcitonin Receptor (CTR) cAMP Assay. Conditions: COS7-human CTR Clone #2 stable cell line, cAMP dynamic 2 kit, 30 min; read-out: Calcitonin Receptor cAMP Stimulation Activity: EC50. It is filed as cell-based. In short, it runs like this: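 COS-7 cells stably expressing human CTR (2000 cells/well) were incubated 30 min at 37 °C with 4-fold serially diluted compound in HBSS/20 mM HEPES/0.5 mM IBMX/0.1% casein. cAMP was detected by HTRF (665/615 nm) after 1 h at RT. % activity was normalised to vehicle and positive controls.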

For experiment [2], the target named is T2, COS-7/AMY3 (human calcitonin receptor (CTR) and RAMP3) (Homo sapiens, UniProt O60896+P30988).
T2 construct: expressed in transfected cells; host or cells: COS-7
Briefly: Amylin Receptor cAMP Assay II. Conditions: values marked **: Amylin Receptor cAMP Assay II; COS-7/AMY3 cells, cAMP dynamic 2 kit, 30 min; read-out: Amylin Receptor cAMP Stimulation Activity: EC50. It is filed as cell-based. The procedure, abridged:
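COS-7 cells stably co-expressing human CTR and RAMP3 (AMY3), 2000 cells/well in HBSS with 20 mM HEPES, 0.5 mM IBMX, 0.1% casein, stimulated with compound for 30 min at 37 °C. cAMP measured by HTRF (665/615 nm), activity normalized between vehicle and maximal control.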

T2 sequence (O60896 24-148, one chain of several): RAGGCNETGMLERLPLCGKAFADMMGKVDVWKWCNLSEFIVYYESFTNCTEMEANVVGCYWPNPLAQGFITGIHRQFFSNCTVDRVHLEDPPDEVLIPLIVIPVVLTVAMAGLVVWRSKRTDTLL

As usually defined, the EC50 is the concentration needed to bring the measured effect to its halfway point. Turning to `O=C1c2c(nc(CCc3ccc(F)cc3)c(-c3n[nH]c(=O)o3)c2-c2cc3ccnc(N[C@@H]4CCOc5ccccc54)c3s2)[C@@H]2CCCN12` [Compound 170], the results for the concentration giving a half-maximal response (EC50) in experiment [1] and in experiment [2] were 1.19 nM and 33.1 nM, respectively.

On to `O=C1c2c(nc(CCC34CCC(CC3)OC4)c(-c3n[nH]c(=O)o3)c2-c2cnc3c(ccn3Cc3ncc(Cl)cc3F)c2)[C@@H]2CCCN12` [Compound 233, (S)-5-(2-(2-(2-oxabicyclo[2.2.2]octan-4-yl)ethyl)-4-(1-((5-chloro-3-fluoropyridin-2-yl)methyl)-1H-pyrrolo[2,3-b]pyridin-5-yl)-5-oxo-7,8,9,9a-tetrahydro-5H-pyrido[2,3-a]pyrrolizin-3-yl)-1,3,4-oxadiazol-2(3H)-one], for which the EC50 in experiment [1] was determined as 36.3 nM; in experiment [2], 1820 nM.

In the case of `COc1cccc2c1CC[C@H]2Nc1cc(C(F)(F)F)cn2cc(-c3c4c(nc(CCc5ccc(F)cc5)c3-c3n[nH]c(=O)o3)[C@@H]3CCCN3C4=O)nc12` [Compound 216, 5-((S)-2-(4-fluorophenethyl)-4-(8-(((R)-4-methoxy-2,3-dihydro-1H-inden-1-yl)amino)-6-(trifluoromethyl)imidazo[1,2-a]pyridin-2-yl)-5-oxo-7,8,9,9a-tetrahydro-5H-pyrido[2,3-a]pyrrolizin-3-yl)-1,3,4-oxadiazol-2(3H)-one], the EC50 was 152 nM in experiment [1] and 1340 nM in experiment [2].

For the molecule `COc1cccc2c1CC[C@H]2Nc1nccc2cc(-c3c4c(nc(CCc5ccc(F)cc5)c3-c3n[nH]c(=O)o3)[C@@H]3COCCN3C4=O)sc12` [Compound 174, (R)-2-(4-fluorophenethyl)-4-(7-(((R)-4-methoxy-2,3-dihydro-1H-inden-1-yl)amino)thieno[2,3-c]pyridin-2-yl)-3-(5-oxo-4,5-dihydro-1,3,4-oxadiazol-2-yl)-7,8,10,10a-tetrahydro-5H-pyrido[2′,3′:3,4]pyrrolo[2,1-c][1,4]oxazin-5-one], the EC50 in experiment [1] came out at 0.347 nM; in experiment [2] it was 31.9 nM.

Turning to `O=C1c2c(nc(CCc3ccc(F)cc3)c(-c3n[nH]c(=O)o3)c2-c2cc3ccnc(Cc4coc5ccccc45)c3s2)[C@@H]2CCCN12` [Compound 248, (S)-5-(4-(7-(benzofuran-3-ylmethyl)thieno[2,3-c]pyridin-2-yl)-2-(4-fluorophenethyl)-5-oxo-7,8,9,9a-tetrahydro-5H-pyrido[2,3-a]pyrrolizin-3-yl)-1,3,4-oxadiazol-2(3H)-one], the values for the EC50 in experiment [1] and in experiment [2] were 102 nM and 4200 nM, respectively.

`COc1c(F)ccc2c1CC[C@H]2Nc1nccc2cc(-c3c4c(nc(CCc5ccc(F)cc5)c3-c3n[nH]c(=O)o3)[C@@H]3CCCN3C4=O)sc12` [Compound 167, 5-((S)-4-(7-(((R)-5-fluoro-4-methoxy-2,3-dihydro-1H-inden-1-yl)amino)thieno[2,3-c]pyridin-2-yl)-2-(4-fluorophenethyl)-5-oxo-7,8,9,9a-tetrahydro-5H-pyrido[2,3-a]pyrrolizin-3-yl)-1,3,4-oxadiazol-2(3H)-one]: the EC50 in experiment [1] stood at 0.13 nM; in experiment [2], 4.38 nM.

On to `COc1c(F)c(F)cc2c1CC[C@H]2Nc1nccc2cc(-c3c4c(nc(CCc5ccc(F)cc5)c3-c3n[nH]c(=O)o3)[C@@H]3CCCN3C4=O)sc12` [Compound 192, 5-((S)-4-(7-(((R)-5,6-difluoro-4-methoxy-2,3-dihydro-1H-inden-1-yl)amino)thieno[2,3-c]pyridin-2-yl)-2-(4-fluorophenethyl)-5-oxo-7,8,9,9a-tetrahydro-5H-pyrido[2,3-a]pyrrolizin-3-yl)-1,3,4-oxadiazol-2(3H)-one], for which the EC50 in experiment [1] worked out at 0.00532 nM; in experiment [2] it was 0.8 nM.

Turning to `CC(c1ccc(C#N)c(F)c1)n1ccc2cc(-c3c(-c4n[nH]c(=O)o4)c(CCc4ccc(F)cc4)nc4c3c(=O)n3n4CCC3)ccc21` (stereo not shown) [Compound 159, 2-fluoro-4-[1-[5-[11-[2-(4-fluorophenyl)ethyl]-7-oxo-10-(2-oxo-3H-1,3,4-oxadiazol-5-yl)-2,6,12-triazatricyclo[6.4.0.02,6]dodeca-1(8),9,11-trien-9-yl]indol-1-yl]ethyl]benzonitrile], the concentration giving a half-maximal response (EC50) was determined as 1.17 nM in experiment [1] and 28.7 nM in experiment [2].

Turning to `O=C1c2c(nc(CCc3ccc(F)cc3)c(-c3n[nH]c(=O)o3)c2-c2ccc3c(Cc4ccc(F)cn4)noc3c2)[C@@H]2CCCN12` [Compound 222, (S)-5-(2-(4-fluorophenethyl)-4-(3-((5-fluoropyridin-2-yl)methyl)benzo[d]isoxazol-6-yl)-5-oxo-7,8,9,9a-tetrahydro-5H-pyrido[2,3-a]pyrrolizin-3-yl)-1,3,4-oxadiazol-2(3H)-one], the EC50 in experiment [1] is 12.8 nM; in experiment [2], 511 nM.

As to `O=C1c2c(nc(CCc3ccc(F)cc3)c(-c3noc(=O)[nH]3)c2-c2ccc3nn(C4CCc5ccccc54)cc3c2)[C@@H]2CCCN12` (stereo partly shown) [Compound 152], the EC50 is 513 nM in experiment [1] and 5100 nM in experiment [2].

With `COc1c(F)ccc2c1CC(F)(F)[C@H]2Nc1nccc2cc(-c3c4c(nc(CCc5ccc(F)cc5)c3-c3n[nH]c(=O)o3)[C@@H]3CCCN3C4=O)sc12` [Compound 282, 5-((S)-2-(4-fluorophenethyl)-5-oxo-4-(7-(((S)-2,2,5-trifluoro-4-methoxy-2,3-dihydro-1H-inden-1-yl)amino)thieno[2,3-c]pyridin-2-yl)-7,8,9,9a-tetrahydro-5H-pyrido[2,3-a]pyrrolizin-3-yl)-1,3,4-oxadiazol-2(3H)-one], the EC50 in experiment [1] amounted to 0.0464 nM; in experiment [2] it was 0.464 nM.

For the molecule `N#Cc1ccc(Cn2c(=O)oc3cc(-c4c(-c5n[nH]c(=O)o5)c(CCc5ccc(F)cc5)nc5c4c(=O)n4n5CCC4)ccc32)cc1F` [Compound 162, 2-fluoro-4-((6-(2-(4-fluorophenethyl)-5-oxo-3-(5-oxo-4,5-dihydro-1,3,4-oxadiazol-2-yl)-8,9-dihydro-5H,7H-pyrazolo[1′,2′:1,2]pyrazolo[3,4-b]pyridin-4-yl)-2-oxobenzo[d]oxazol-3(2H)-yl)methyl)benzonitrile], the figures for the EC50 in experiment [1] and in experiment [2] were 0.157 nM and 3.71 nM, respectively.

Consider `O=C(N[C@@H]1CCc2cc(F)c(F)cc21)c1ccc(-c2c3c(nc(CCc4ccc(F)cc4)c2-c2noc(=O)[nH]2)[C@@H]2CCCN2C3=O)s1` [Compound 120], for which the 50% effective concentration (EC50) in experiment [1] is 1.24 nM; in experiment [2], 23.6 nM.

Regarding `O=C1c2c(nc(CCC34CCC(CC3)OC4)c(-c3n[nH]c(=O)o3)c2-c2cnc3c(ccn3Cc3ccc(F)cn3)c2)[C@@H]2CCCN12` [Compound 232, (S)-5-(2-(2-(2-oxabicyclo[2.2.2]octan-4-yl)ethyl)-4-(1-((5-fluoropyridin-2-yl)methyl)-1H-pyrrolo[2,3-b]pyridin-5-yl)-5-oxo-7,8,9,9a-tetrahydro-5H-pyrido[2,3-a]pyrrolizin-3-yl)-1,3,4-oxadiazol-2(3H)-one], the figures for the EC50 in experiment [1] and in experiment [2] were 412 nM and 12000 nM, respectively.

On to `CC(c1ccc(C#N)c(F)c1)n1c(=O)oc2cc(-c3c4c(nc(CCc5ccc(F)cc5)c3-c3n[nH]c(=O)o3)[C@@H]3CCCN3C4=O)ccc21` (stereo partly drawn) [Compound 209, 2-fluoro-4-(1-(6-((S)-2-(4-fluorophenethyl)-5-oxo-3-(5-oxo-4,5-dihydro-1,3,4-oxadiazol-2-yl)-7,8,9,9a-tetrahydro-5H-pyrido[2,3-a]pyrrolizin-4-yl)-2-oxobenzo[d]oxazol-3(2H)-yl)ethyl)benzonitrile], for which the 50% effective concentration (EC50) in experiment [1] was 0.154 nM; in experiment [2], 17.2 nM.

`COc1cccc2c1CC(F)(F)[C@@H]2Nc1nccc2cc(-c3c4c(nc(CCc5ccc(F)cc5)c3-c3n[nH]c(=O)o3)[C@@H]3CCCN3C4=O)sc12` [Compound 251, 5-((S)-4-(7-(((R)-2,2-difluoro-4-methoxy-2,3-dihydro-1H-inden-1-yl)amino)thieno[2,3-c]pyridin-2-yl)-2-(4-fluorophenethyl)-5-oxo-7,8,9,9a-tetrahydro-5H-pyrido[2,3-a]pyrrolizin-3-yl)-1,3,4-oxadiazol-2(3H)-one]: the EC50 in experiment [1] worked out at 7.28 nM; in experiment [2], 82.8 nM.

On to `CC(c1ccc(C#N)cn1)N1C(=O)C(C)(C)Oc2cc(-c3c4c(nc(CCc5ccc(F)cc5)c3-c3n[nH]c(=O)o3)[C@@H]3CCCN3C4=O)ccc21` (stereo partly drawn) [Compound 252, 6-(1-(7-((S)-2-(4-fluorophenethyl)-5-oxo-3-(5-oxo-4,5-dihydro-1,3,4-oxadiazol-2-yl)-7,8,9,9a-tetrahydro-5H-pyrido[2,3-a]pyrrolizin-4-yl)-2,2-dimethyl-3-oxo-2H-benzo[b][1,4]oxazin-4(3H)-yl)ethyl)nicotinonitrile], for which the EC50 in experiment [1] worked out at 7.9 nM; in experiment [2], 248 nM.
